Experiment [1] concerns breast cancer cell line MX-1. Description: MX-1 cell line proliferation assay (3-day). In kind it is cell-based. The note with it: Homo sapiens, MX1; MX-1 cells, 72 h incubation, Cell Titer Glo; read-out: Cellular proliferation: EC50. The gist of the method:
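MX-1 cells in RPMI/10% FBS, plated 5000/well overnight, then exposed to compound at final 3 to 0.0001 μM (3-fold series) for 3 days at 37° C. Cell Titer Glo luminescence normalized to DMSO-treated cells; EC50 from sigmoidal curve fit.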
For orientation: In ATP-based viability assays light output follows the ATP content of the culture.

The target of experiment [2] is T1, first (BD1: amino acids K57-E168) bromodomain of BRD4 (Homo sapiens, UniProt O60885).
T1 construct: His-tagged first (BD1: amino acids K57-E168)
As to the kind of experiment: TR-FRET bromodomain binding assay, BRD4 BD1. The settings on record: TR-FRET assay protocol (A-G, compound concentration range); Ki calculated from IC50, probe Kd and probe concentration; read-out: TR-FRET Binding Ki: BRD4 (BDI_K57-E168). The gist of the method: (§1)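 His-tagged BRD4 BD1 (K57-E168) or BD2 ([…]) displacing an Alexa647-labelled BET-inhibitor probe in 20 mM sodium phosphate pH 6.0, 50 mM NaCl, 1 mM EDTA, 0.01% Triton X-100, 1 mM DTT.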

Experiment [3] deals with T2, second (BD2: amino acids E352-E168) bromodomain of BRD4 (Homo sapiens, UniProt O60885).
T2 construct: protocol
As to the kind of experiment: TR-FRET bromodomain binding assay, BRD4 BD2. The note with it: TR-FRET assay protocol (A-G, compound concentration range); Ki calculated from IC50, probe Kd and probe concentration; read-out: TR-FRET Binding Ki: BRD4 (BDII_E352-M457). In a few lines: as §1

`CCS(=O)(=O)Nc1ccc(Oc2ccc(F)cc2F)c(-c2c[nH]c(=O)c(C)c2)c1` [Example 264, N-[4-(2,4-difluorophenoxy)-3-(5-methyl-6-oxo-1,6-dihydropyridin-3-yl)phenyl]ethanesulfonamide]: the EC50 in experiment [1] turned out to be 176 nM. Moreover, the Ki – broadly, the dissociation constant of the complex between target and ligand, obtained from inhibition or displacement – in experiment [2] was 33.5 nM; in experiment [3], 55.3 nM.
Turning to `CC(=O)Nc1ccc(Oc2ccc(F)cc2F)c(-c2c[nH]c(=O)c(C)c2)c1` [Example 265, N-[4-(2,4-difluorophenoxy)-3-(5-methyl-6-oxo-1,6-dihydropyridin-3-yl)phenyl]acetamide], the EC50 in experiment [1] is 1720 nM. The figures for the Ki in experiment [2] and in experiment [3] were 132 nM and 172 nM, respectively.
Taken in the same sequence, the figures for `Cc1cc(-c2cc(NS(C)(=O)=O)ccc2OC2CCC(F)(F)CC2)c[nH]c1=O` [Example 266, N-{4-[(4,4-difluorocyclohexyl)oxy]-3-(5-methyl-6-oxo-1,6-dihydropyridin-3-yl)phenyl}methanesulfonamide] were greater than 3000 nM, 58.3 nM and 341 nM.
As to `CCS(=O)(=O)Nc1ccc(OC2CCC(F)(F)CC2)c(-c2c[nH]c(=O)c(C)c2)c1` [Example 267, N-{4-[(4,4-difluorocyclohexyl)oxy]-3-(5-methyl-6-oxo-1,6-dihydropyridin-3-yl)phenyl}ethanesulfonamide], the EC50 in experiment [1] is greater than 3000 nM. Besides, the Ki in experiment [2] was 47.8 nM; in experiment [3], 101 nM.
Taken in the same sequence, the figures for `CCS(=O)(=O)Nc1ccc(Oc2ccc(F)cc2F)c(-c2cn(C)c(=O)cc2C(F)(F)F)c1` [Example 268, N-{4-(2,4-difluorophenoxy)-3-[1-methyl-6-oxo-4-(trifluoromethyl)-1,6-dihydropyridin-3-yl]phenyl}ethanesulfonamide] were 579 nM, 483 nM and 95.1 nM.
In the same order, the values of `Cn1cc(-c2cc(NS(C)(=O)=O)ccc2Oc2ccc(F)cc2F)c(-c2ccc(CO)cc2)cc1=O` [Example 272, N-[4-(2,4-difluorophenoxy)-3-{4-[4-(hydroxymethyl)phenyl]-1-methyl-6-oxo-1,6-dihydropyridin-3-yl]phenyl}methanesulfonamide] are 167 nM, 16.9 nM and 4.62 nM.
On to `CN1CCN(Cc2ccc(-c3cc(=O)n(C)cc3-c3cc(NS(C)(=O)=O)ccc3Oc3ccc(F)cc3F)cc2)CC1` [Example 273, N-[4-(2,4-difluorophenoxy)-3-(1-methyl-4-{4-[(4-methylpiperazin-1-yl)methyl]phenyl}-6-oxo-1,6-dihydropyridin-3-yl)phenyl]methanesulfonamide], for which the EC50 in experiment [1] was determined as 107 nM. The Ki in experiment [2] is 4.58 nM; in experiment [3], 2.45 nM.
Taken in the same sequence, the figures for `Cn1cc(-c2cc(NS(C)(=O)=O)ccc2Oc2ccc(F)cc2F)c(-c2ccc(N3CCOCC3)cc2)cc1=O` [Example 274, N-[4-(2,4-difluorophenoxy)-3-{1-methyl-4-[4-(morpholin-4-yl)phenyl]-6-oxo-1,6-dihydropyridin-3-yl]phenyl}methanesulfonamide] were 77.4 nM, 24.5 nM and 5.5 nM.
As to `CCS(=O)(=O)c1ccc(OCC2CC2)c(-c2cn(C)c(=O)cc2OC)c1` [Example 275, 5-[2-(cyclopropylmethoxy)-5-(ethylsulfonyl)phenyl]-4-methoxy-1-methylpyridin-2(1H)-one], the EC50 in experiment [1] is 223 nM. The Ki is 55.9 nM in experiment [2] and 119 nM in experiment [3].
Taken in the same sequence, the figures for `CCOc1cc(=O)n(C)cc1-c1cc(NS(C)(=O)=O)ccc1Oc1ccc(F)cc1F` [Example 277, N-[4-(2,4-difluorophenoxy)-3-(4-ethoxy-1-methyl-6-oxo-1,6-dihydropyridin-3-yl)phenyl]methanesulfonamide] were 48.1 nM, 10.7 nM and 5.29 nM.
With `CCS(=O)(=O)Nc1ccc(Oc2ccc(F)cc2F)c(-c2cn(C)c(=O)cc2-c2ccc(CO)cc2)c1` [Example 278, N-[4-(2,4-difluorophenoxy)-3-{4-[4-(hydroxymethyl)phenyl]-1-methyl-6-oxo-1,6-dihydropyridin-3-yl]phenyl}ethanesulfonamide], the EC50 in experiment [1] came out at 63.4 nM. Also, the Ki in experiment [2] is 7.53 nM; in experiment [3], 1.39 nM.
Taken in the same sequence, the figures for `CCS(=O)(=O)Nc1ccc(Oc2ccc(F)cc2F)c(-c2cn(C)c(=O)cc2-c2ccc(CN3CCN(C)CC3)cc2)c1` [Example 279, N-[4-(2,4-difluorophenoxy)-3-(1-methyl-4-{4-[(4-methylpiperazin-1-yl)methyl]phenyl}-6-oxo-1,6-dihydropyridin-3-yl)phenyl]ethanesulfonamide] were 45.4 nM, 2.73 nM and 1.3 nM.
`CCS(=O)(=O)Nc1ccc(Oc2ccc(F)cc2F)c(-c2cn(C)c(=O)cc2-c2ccc(CN(C)C)cc2)c1` [Example 280, N-[4-(2,4-difluorophenoxy)-3-(4-{4-[(dimethylamino)methyl]phenyl}-1-methyl-6-oxo-1,6-dihydropyridin-3-yl)phenyl]ethanesulfonamide]: the EC50 in experiment [1] was determined as 38.1 nM. Moreover, the Ki was 3.8 nM in experiment [2] and 1.73 nM in experiment [3].
As to `Cn1cc(-c2ccccc2Oc2ccccc2)cc(Cl)c1=O` [Example 281, 3-chloro-1-methyl-5-(2-phenoxyphenyl)pyridin-2(1H)-one], the EC50 in experiment [1] is 1650 nM. Moreover, the Ki in experiment [2] is 150 nM; in experiment [3] it was 509 nM.
In the same order, the values of `CCS(=O)(=O)Nc1ccc(Oc2ccc(F)cc2F)c(-c2cc(Cl)c(=O)n(C)c2)c1` [Example 283, N-[3-(5-chloro-1-methyl-6-oxo-1,6-dihydropyridin-3-yl)-4-(2,4-difluorophenoxy)phenyl]ethanesulfonamide] are 194 nM, 17.4 nM and 39.4 nM.
Regarding `CCS(=O)(=O)Nc1ccc(Oc2ccc(F)cc2F)c(-c2cn(C)c(=O)cc2-c2ccc(N3CCOCC3)cc2)c1` [Example 284, N-[4-(2,4-difluorophenoxy)-3-{1-methyl-4-[4-(morpholin-4-yl)phenyl]-6-oxo-1,6-dihydropyridin-3-yl]phenyl}ethanesulfonamide], the EC50 in experiment [1] turned out to be 44.3 nM. Also, the Ki in experiment [2] is 5.75 nM; in experiment [3], 1.84 nM.
Taken in the same sequence, the figures for `CCS(=O)(=O)Nc1ccc(Oc2ccc(F)cc2F)c(-c2cn(C)c(=O)cc2OCCN2CCOCC2)c1` [Example 286, N-[4-(2,4-difluorophenoxy)-3-{1-methyl-4-[2-(morpholin-4-yl)ethoxy]-6-oxo-1,6-dihydropyridin-3-yl]phenyl}ethanesulfonamide] were greater than 3000 nM, 82.6 nM and 75.9 nM.
Taken in the same sequence, the figures for `CCS(=O)(=O)Nc1ccc(Oc2ccc(F)cc2F)c(-c2cn(C)c(=O)cc2OCC2CC2)c1` [Example 287, N-(3-(4-(cyclopropylmethoxy)-1-methyl-6-oxo-1,6-dihydropyridin-3-yl)-4-(2,4-difluorophenoxy)phenyl)ethanesulfonamide] were 59.6 nM, 6.62 nM and 2.15 nM.
`CCS(=O)(=O)Nc1ccc(Oc2ccc(F)cc2F)c(-c2cn(C)c(=O)cc2OC(C)C)c1` [Example 289, N-{4-(2,4-difluorophenoxy)-3-[1-methyl-6-oxo-4-(propan-2-yloxy)-1,6-dihydropyridin-3-yl]phenyl}ethanesulfonamide]: the EC50 in experiment [1] was determined as 77 nM. Further, the inhibition constant (Ki) was 6.31 nM in experiment [2] and 0.639 nM in experiment [3].
For `CCS(=O)(=O)Nc1ccc(Oc2ccc(F)cc2F)c(-c2cn(C)c(=O)cc2OCC(C)C)c1` [Example 290, N-{4-(2,4-difluorophenoxy)-3-[1-methyl-4-(2-methylpropoxy)-6-oxo-1,6-dihydropyridin-3-yl]phenyl}ethanesulfonamide], the EC50 in experiment [1] was 138 nM. Besides, the Ki in experiment [2] is 12 nM; in experiment [3] it was 3.22 nM.
Taken in the same sequence, the figures for `CCS(=O)(=O)Nc1ccc(Oc2ccc(F)cc2F)c(-c2cn(C)c(=O)cc2OCC2CCOC2)c1` (stereo not drawn) [Example 291, N-{4-(2,4-difluorophenoxy)-3-[1-methyl-6-oxo-4-(tetrahydrofuran-3-ylmethoxy)-1,6-dihydropyridin-3-yl]phenyl}ethanesulfonamide] were 112 nM, 16.2 nM and 6.27 nM.
In the same order, the values of `CCS(=O)(=O)Nc1ccc(Oc2ccc(C(N)=O)cc2)c(-c2cn(C)c(=O)cc2OCC(F)(F)F)c1` [Example 294, 4-{4-[(ethylsulfonyl)amino]-2-[1-methyl-6-oxo-4-(2,2,2-trifluoroethoxy)-1,6-dihydropyridin-3-yl]phenoxy}benzamide] are greater than 3000 nM, 27.8 nM and 8.3 nM.
In the same order, the values of `CCOc1cc(=O)n(C)cc1-c1cc(NC(=O)c2ccc(COc3ccccc3)cc2)ccc1Oc1ccc(F)cc1F` [Example 297, N-[4-(2,4-difluorophenoxy)-3-(4-ethoxy-1-methyl-6-oxo-1,6-dihydropyridin-3-yl)phenyl]-4-(phenoxymethyl)benzamide] are 2420 nM, greater than 238 nM and 256 nM.

These data come from patent US9561231B2 (AbbVie Inc., priority 2012, dated 2017).
